# Reference: patent US20070275961A1, “Triazolo ' 1, 5-A ! Pyrimidines and Their Use in Medicine” (VERNALIS (CAMBRIDGE) LIMITED., priority 2003, published 2007)
# Legend:
# Type in all cases: biochemical
# [1] = target: T1, Chk1 (Homo sapiens, UniProt O14757); assay: Chk1 kinase assay, phosphorylation of Chktide (33P-ATP filtration); details: Table 2; 0.01 mM ATP; read-out: Chk1 IC50
# T1 sequence (O14757 1-476): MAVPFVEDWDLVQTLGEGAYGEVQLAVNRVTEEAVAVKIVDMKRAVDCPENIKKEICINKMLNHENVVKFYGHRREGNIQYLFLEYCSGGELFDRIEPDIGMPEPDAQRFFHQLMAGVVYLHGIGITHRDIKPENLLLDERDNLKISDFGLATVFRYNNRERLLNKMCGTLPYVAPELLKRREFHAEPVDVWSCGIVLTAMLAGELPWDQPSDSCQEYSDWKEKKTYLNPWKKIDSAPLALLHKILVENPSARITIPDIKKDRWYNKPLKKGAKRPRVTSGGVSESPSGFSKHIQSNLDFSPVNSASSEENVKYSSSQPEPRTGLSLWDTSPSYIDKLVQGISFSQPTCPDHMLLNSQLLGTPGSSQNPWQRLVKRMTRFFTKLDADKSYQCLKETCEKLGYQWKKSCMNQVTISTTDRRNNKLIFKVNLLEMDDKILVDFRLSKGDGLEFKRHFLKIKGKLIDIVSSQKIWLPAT
# Procedure: Assays for the Chk1 kinase activity were carried out by monitoring the phosphorylation of a synthetic peptide Chktide with the amino acid sequence, […]. The assay mixture containing the inhibitor and Chk1 enzyme was mixed together in a microtiter plate in a final volume of 50 μl and incubated for 40 minutes at 30° C.
# The assay mixture contained 0.01 mM unlabeled ATP, 0.5 μCi ^33P-γ-ATP, 30 μM Chktide, 0.1 mg/ml BSA, 50 mM Hepes-NaOH pH 7.5 and 11 nM GST-Chk1 enzyme. The reaction was stopped by adding 50 μl of 50 mM phosphoric acid. 90 μl of the mixture was transferred to a pre-wetted 96-well Multiscreen MAPHNOB filtration plate (Millipore) and filtered on a vacuum manifold. The filter plate was washed with three successive additions of 200 μl 50 mM phosphoric acid and then with 100 μl methanol. The filtration plate was dried for 10 min at 65° C., scintillant added and phosphorylated peptide quantified in a scintillation counter (Trilux, PerkinElmer).
# [2] = target: T2, PDK1 enzyme (Homo sapiens, UniProt O15530); assay: PDK1 3'-phosphoinositide-dependent kinase assay, phosphorylation of synthetic peptide (33P-ATP filtration); details: Table 2; 0.01 mM ATP; read-out: PDK1 IC50
# T2 sequence (O15530 1-556): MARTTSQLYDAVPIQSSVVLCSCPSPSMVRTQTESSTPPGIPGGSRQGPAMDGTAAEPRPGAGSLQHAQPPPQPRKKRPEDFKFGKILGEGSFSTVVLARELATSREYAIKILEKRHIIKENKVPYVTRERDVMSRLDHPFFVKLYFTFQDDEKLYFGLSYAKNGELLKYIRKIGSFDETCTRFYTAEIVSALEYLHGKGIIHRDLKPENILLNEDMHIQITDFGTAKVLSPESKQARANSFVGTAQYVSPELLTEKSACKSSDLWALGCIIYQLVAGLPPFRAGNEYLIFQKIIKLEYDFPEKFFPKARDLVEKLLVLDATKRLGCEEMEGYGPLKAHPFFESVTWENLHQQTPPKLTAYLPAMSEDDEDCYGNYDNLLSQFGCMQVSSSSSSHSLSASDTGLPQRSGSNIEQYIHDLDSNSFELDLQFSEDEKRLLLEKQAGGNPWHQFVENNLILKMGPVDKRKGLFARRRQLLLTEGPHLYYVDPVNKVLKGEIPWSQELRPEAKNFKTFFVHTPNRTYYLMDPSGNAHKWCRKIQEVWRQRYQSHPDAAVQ
# Procedure: (§1) The assay mixture containing the inhibitor and PDK1 enzyme was mixed together in a microtiter plate in a final volume of 50 μl and incubated for 60 min at 30° C. The assay mixture contained 0.01 mM unlabeled ATP, 0.01 μCi/μl ^33P-γ-ATP, 0.075 mM peptide, 0.1 mg/ml BSA, 7.5 mM magnesium acetate, 0.05 M Tris.HCl, pH 7.5, 0.5% 2-mercaptoethanol. The reaction was stopped by adding 50 μl of 50 mM phosphoric acid. 90 μl of the mixture were transferred to a pre-wetted 96-well Multiscreen MAPHNOB filtration plate (Millipore) and filtered on a vacuum manifold. The filter plate was washed with three successive additions of 200 μl 50 mM phosphoric acid and then with 100 μl methanol. The filtration plate was dried for 10 min at 65° C., scintillant added and phosphorylated peptide quantified in a scintillation counter (Trilux, PerkinElmer).
# [3] = target: CDK2 enzyme, complexed with cyclin A (Homo sapiens, UniProt P24941); assay: CDK2 cyclin dependent kinase assay, phosphorylation of synthetic peptide […] (33P-ATP filtration); details: Table 2; 0.1 mM ATP
# Procedure: as §1, with “and CDK2 enzyme, complexed with cyclin A (0.4 U/ml)” for “and PDK1 enzyme”, “for 40” for “for 60”, “contained 0.1” for “contained 0.01”, “^33P-γ-ATP, 0.03” for “^33P-γ-ATP, 0.075”, “acetate, 50 mM HEPES-NaOH,” for “acetate, 0.05 M Tris.HCl,”, “pH 7.5.” for “pH 7.5, 0.5% 2-mercaptoethanol.”
# HEPES is N-[2-hydroxyethyl]piperazine-N′-[2-ethanesulfonic acid]. BSA is bovine serum albumin.
Compound,IC50 [1] [µM],IC50 [2] [µM],IC50 [3] [µM]
O=S(=O)(c1ccc(Nc2cc(Cl)nc3ncnn23)cc1)C(F)(F)F [Example 64],> 200,> 200,155
CCN(CC)c1cc(Nc2ccc(S(C)(=O)=O)cc2)n2ncnc2n1 [Example 65],> 200,> 200,0.94
CNc1cc(Nc2ccc(S(N)(=O)=O)cc2)n2ncnc2n1 [Example 66],> 200,> 200,4.19
NS(=O)(=O)c1ccc(Nc2cc(N3CCCC(O)C3)nc3ncnn23)cc1 (stereo not drawn) [Example 67],> 200,> 200,2.3
NS(=O)(=O)c1ccc(Nc2cc(N[C@H]3CC[C@H](O)CC3)nc3ncnn23)cc1 [Example 68],> 200,> 200,7.4
CC[C@H](CO)Nc1cc(Nc2ccc(S(C)(=O)=O)cc2)n2ncnc2n1 [Example 69],> 200,> 200,1.82
CCN(CC)c1cc(Nc2ccc(S(=O)(=O)C(F)(F)F)cc2)n2ncnc2n1 [Example 70],> 200,> 200,2.69
CCN(CC)c1cc(Nc2ccc(S(=O)(=O)N(C)C)cc2)n2ncnc2n1 [Example 71],> 200,> 200,0.59
CCN(CC)c1cc(Nc2ccc(S(=O)(=O)N3CCC(O)CC3)cc2)n2ncnc2n1 [Example 72],> 200,> 200,0.38
CN(C)CCN(C)c1cc(Nc2ccc(S(C)(=O)=O)cc2)n2ncnc2n1 [Example 73],> 200,> 200,22.5
CCCc1cc(Nc2ccc(S(C)(=O)=O)cc2)n2ncnc2n1 [Example 74],> 200,> 200,14.2
Clc1cc(Nc2ccccc2)n2ncnc2n1 [Example 75],> 200,> 200,62.8
CC(C)(C)OC(=O)N1CCC(CNc2cc(Cl)nc3ncnn23)CC1 [Example 76],> 200,> 200,> 200
Cc1cc(Nc2ccc(S(C)(=O)=O)cc2)n2ncnc2n1 [Example 77],> 200,> 200,124
CC(C)c1cc(Nc2ccc(S(C)(=O)=O)cc2)n2ncnc2n1 [Example 78],> 200,> 200,7.42
CC[C@H](CO)Nc1cc(NCc2ccccc2)n2ncnc2n1 [Example 79],> 200,> 200,5.05
CCNc1cc(Nc2ccc(S(C)(=O)=O)cc2)n2ncnc2n1 [Example 80],> 200,> 200,13.5
Clc1cc(NCC2CCNCC2)n2ncnc2n1 [Example 81],> 200,> 200,177
CCN(CC)c1cc(Nc2ccccc2)n2ncnc2n1 [Example 82],> 200,> 200,4.66
CN(C)S(=O)(=O)c1ccc(Nc2cc(N[C@H]3CC[C@H](N)CC3)nc3ncnn23)cc1 [Example 83],93.4,43.3,0.27

Compound,IC50 [1] [µM],IC50 [2] [µM],IC50 [3] [µM]
CS(=O)(=O)c1ccc(Nc2cc(N[C@H]3CC[C@H](N)CC3)nc3ncnn23)cc1 [Example 84],> 200,107,0.25
CCN(c1cc(Nc2ccc(S(C)(=O)=O)cc2)n2ncnc2n1)C(C)C [Example 85],> 200,2.89,0.86
CC(C)N(CCO)c1cc(Nc2ccc(S(C)(=O)=O)cc2)n2ncnc2n1 [Example 87],> 200,> 200,1.49
O=S(=O)(c1ccccc1)c1ccc(Nc2cc(Cl)nc3ncnn23)cc1 [Example 88],11.9,> 200,5.98
CS(=O)(=O)c1ccc(Nc2cc(N3CCC(C(N)=O)CC3)nc3ncnn23)cc1 [Example 89],> 200,> 200,36
COc1cc(Nc2cc(Cl)nc3ncnn23)c(Cl)cc1C(=O)O [Example 90],> 200,> 200,102
CN(C)c1ccc(Nc2cc(Nc3ccc(S(C)(=O)=O)cc3)n3ncnc3n2)cc1 [Example 91],14.2,> 200,4.83
CCN(CC)c1cc(Nc2ccc(C(N)=O)cc2)n2ncnc2n1 [Example 92],> 200,> 200,1.49
CCN(CC)c1cc(Nc2ccc(S(=O)(=O)c3ccccc3)cc2)n2ncnc2n1 [Example 93],> 200,> 200,0.67
CC(C)(C)CNc1cc(Nc2ccc(S(C)(=O)=O)cc2)n2ncnc2n1 [Example 94],> 200,> 200,1.53
CS(=O)(=O)c1ccc(CNc2cc(Cl)nc3ncnn23)cc1 [Example 95],> 200,> 200,76.2
CS(=O)(=O)c1ccc(Nc2cc(NC3CCCC3)nc3ncnn23)cc1 [Example 96],> 200,> 200,2.23
CS(=O)(=O)c1ccc(Nc2cc(N)nc3ncnn23)cc1 [Example 97],> 200,> 200,20.3
N[C@H]1CC[C@H](Nc2cc(Nc3ccc(S(=O)(=O)c4ccccc4)cc3)n3ncnc3n2)CC1 [Example 98],2.19,14.2,0.26
CS(=O)(=O)c1ccc(Nc2cc(NCC34CC5CC(CC(C5)C3)C4)nc3ncnn23)cc1 [Example 99],> 200,> 200,25.7
CS(=O)(=O)c1ccc(CNc2cc(N[C@H]3CC[C@H](N)CC3)nc3ncnn23)cc1 [Example 100],> 200,> 200,2.95
CS(=O)(=O)c1ccc(Nc2cc(NC3CC3)nc3ncnn23)cc1 [Example 101],> 200,> 200,15.1
CS(=O)(=O)c1ccc(Nc2cc(NC3C4CC5CC(C4)CC3C5)nc3ncnn23)cc1 (stereo not drawn) [Example 102],59.4,3.55,10.9
CCN(CC)c1cc(NCc2ccc(S(C)(=O)=O)cc2)n2ncnc2n1 [Example 103],> 200,> 200,29.8
